Reference: ChEMBL document CHEMBL4308841, “Synthesis, in vitro antiproliferative activity, and kinase inhibitory effects of pyrazole-containing diarylureas and diarylamides” (Eur J Med Chem, 2018)

Legend:
[1] = test system: HT-29; test: Growth inhibition of human HT-29 cells assessed as cell growth at 100 uM incubated for 48 hrs by sulforhodamine B assay relative to control; format: functional; settings: HT-29, 48 h, read-out: Activity
[2] = test system: NCI-H226; test: Growth inhibition of human NCI-H226 cells assessed as cell growth at 0.01 uM incubated for 48 hrs by sulforhodamine B assay relative to control; format: functional; settings: NCI-H226, 48 h, read-out: Activity
[3] = test system: NCI-H322M; test: Growth inhibition of human NCI-H322M cells assessed as cell growth at 100 uM incubated for 48 hrs by sulforhodamine B assay relative to control; format: functional; settings: read-out: Activity
[4] = test system: OVCAR-8; test: Growth inhibition of human OVCAR8 cells assessed as cell growth at 0.01 uM incubated for 48 hrs by sulforhodamine B assay relative to control; format: functional; settings: OVCAR-8, 48 h, read-out: Activity
[5] = test system: UACC-62; test: Growth inhibition of human UACC62 cells assessed as cell growth at 100 uM incubated for 48 hrs by sulforhodamine B assay relative to control; format: functional; settings: UACC-62, 48 h, read-out: Activity
[6] = test system: SF-539; test: Growth inhibition of human SF539 cells incubated for 48 hrs by sulforhodamine B assay; format: functional, cell-based; settings: SF-539, 48 h
[7] = test system: OVCAR-5; test: Growth inhibition of human OVCAR5 cells assessed as cell growth at 1 uM incubated for 48 hrs by sulforhodamine B assay relative to control; format: functional; settings: OVCAR-5, 48 h, read-out: Activity
[8] = test system: SK-MEL-28; test: Growth inhibition of human SK-MEL-28 cells assessed as cell growth at 100 uM incubated for 48 hrs by sulforhodamine B assay relative to control; format: functional; settings: SK-MEL-28, 48 h, read-out: Activity
[9] = test system: OVCAR-8; test: Growth inhibition of human OVCAR8 cells assessed as cell growth at 100 uM incubated for 48 hrs by sulforhodamine B assay relative to control; format: functional; settings: OVCAR-8, 48 h, read-out: Activity
[10] = test system: BT-549; test: Growth inhibition of human BT549 cells assessed as cell growth at 100 uM incubated for 48 hrs by sulforhodamine B assay relative to control; format: functional; settings: BT-549, 48 h, read-out: Activity
[11] = test system: HT-29; test: Growth inhibition of human HT-29 cells assessed as cell growth at 0.01 uM incubated for 48 hrs by sulforhodamine B assay relative to control; format: functional; settings: HT-29, 48 h, read-out: Activity
[12] = test system: SK-OV-3; test: Growth inhibition of human SKOV3 cells incubated for 48 hrs by sulforhodamine B assay; format: functional, cell-based; settings: SK-OV-3, 48 h
[13] = test system: NCI-H460; test: Growth inhibition of human NCI-H460 cells incubated for 48 hrs by sulforhodamine B assay; format: functional, cell-based; settings: NCI-H460, 48 h
[14] = test system: NCI-H226; test: Growth inhibition of human NCI-H226 cells incubated for 48 hrs by sulforhodamine B assay; format: functional, cell-based; settings: NCI-H226, 48 h
[15] = test system: Malme-3M; test: Growth inhibition of human MALME-3M cells assessed as cell growth at 1 uM incubated for 48 hrs by sulforhodamine B assay relative to control; format: functional; settings: read-out: Activity
[16] = test system: ACHN; test: Growth inhibition of human ACHN cells assessed as cell growth at 1 uM incubated for 48 hrs by sulforhodamine B assay relative to control; format: functional; settings: read-out: Activity
[17] = test system: PC-3; test: Growth inhibition of human PC3 cells assessed as cell growth at 0.1 uM incubated for 48 hrs by sulforhodamine B assay relative to control; format: functional; settings: PC-3, 48 h, read-out: Activity
[18] = test system: LOX IMVI; test: Growth inhibition of human LOXIMVI cells assessed as cell growth at 1 uM incubated for 48 hrs by sulforhodamine B assay relative to control; format: functional; settings: read-out: Activity
[19] = test system: COLO 205; test: Growth inhibition of human COLO205 cells assessed as cell growth at 0.1 uM incubated for 48 hrs by sulforhodamine B assay relative to control; format: functional; settings: COLO 205, 48 h, read-out: Activity
[20] = test system: NCI-H460; test: Growth inhibition of human NCI-H460 cells assessed as cell growth at 100 uM incubated for 48 hrs by sulforhodamine B assay relative to control; format: functional; settings: NCI-H460, 48 h, read-out: Activity
[21] = test system: U-251; test: Growth inhibition of human U251 cells incubated for 48 hrs by sulforhodamine B assay; format: functional, cell-based; settings: U-251, 48 h
[22] = test system: MCF7; test: Growth inhibition of human MCF7 cells assessed as cell growth at 100 uM incubated for 48 hrs by sulforhodamine B assay relative to control; format: functional; settings: MCF7, 48 h, read-out: Activity
[23] = test system: OVCAR-5; test: Growth inhibition of human OVCAR5 cells assessed as cell growth at 0.1 uM incubated for 48 hrs by sulforhodamine B assay relative to control; format: functional; settings: OVCAR-5, 48 h, read-out: Activity
[24] = test system: HCT-116; test: Growth inhibition of human HCT116 cells assessed as cell growth at 1 uM incubated for 48 hrs by sulforhodamine B assay relative to control; format: functional; settings: HCT-116, 48 h, read-out: Activity
[25] = test system: SW-620; test: Growth inhibition of human SW620 cells assessed as cell growth at 1 uM incubated for 48 hrs by sulforhodamine B assay relative to control; format: functional; settings: SW-620, 48 h, read-out: Activity
[26] = test system: HT-29; test: Growth inhibition of human HT-29 cells assessed as cell growth at 0.1 uM incubated for 48 hrs by sulforhodamine B assay relative to control; format: functional; settings: HT-29, 48 h, read-out: Activity
[27] = test system: SNB-75; test: Growth inhibition of human SNB75 cells assessed as cell growth at 100 uM incubated for 48 hrs by sulforhodamine B assay relative to control; format: functional; settings: SNB-75, 48 h, read-out: Activity
[28] = test system: RPMI-8226; test: Growth inhibition of human RPMI8226 cells assessed as cell growth at 0.01 uM incubated for 48 hrs by sulforhodamine B assay relative to control; format: functional; settings: RPMI-8226, 48 h, read-out: Activity
[29] = test system: NCI-H460; test: Growth inhibition of human NCI-H460 cells assessed as cell growth at 0.01 uM incubated for 48 hrs by sulforhodamine B assay relative to control; format: functional; settings: NCI-H460, 48 h, read-out: Activity
[30] = test system: RXF 393; test: Growth inhibition of human RXF393 cells incubated for 48 hrs by sulforhodamine B assay; format: functional, cell-based; settings: RXF 393, 48 h
[31] = read-out: LC50 (the source's name)
[32] = read-out: pLC50 (the source's name) (converted)

Structure (SMILES): COc1cc(Cl)cc(-c2nn(-c3cccc(NC(=O)c4cccc(C(F)(F)F)c4)c3)cc2-c2ccncc2)c1
- growth at 100 µM [1]: 34%
- growth at 0.01 µM [2]: 95%
- growth at 100 µM [3]: 75%
- growth at 0.01 µM [4]: 103%
- growth at 100 µM [5]: 40%
- GI50 ([6]; read-out: GI50): > 100 µM
- CC50 [6, 31]: > 100 µM
- TGI ([6]; read-out: TGI): > 100 µM
- GI50 ([6]; read-out: pGI50 (converted)): > 100 µM
- CC50 [6, 32]: > 100 µM
- TGI ([6]; read-out: pTGI (converted)): > 100 µM
- growth at 1 µM [7]: 96%
- growth at 100 µM [8]: 75%
- growth at 100 µM [9]: 41%
- growth at 100 µM [10]: 54%
- growth at 0.01 µM [11]: 90%
- GI50 ([12]; read-out: GI50): > 100 µM
- CC50 [12, 31]: > 100 µM
- TGI ([12]; read-out: TGI): > 100 µM
- GI50 ([12]; read-out: pGI50 (converted)): > 100 µM
- CC50 [12, 32]: > 100 µM
- TGI ([12]; read-out: pTGI (converted)): > 100 µM
- GI50 ([13]; read-out: GI50): 5.17 µM
- CC50 [13, 31]: > 100 µM
- TGI ([13]; read-out: TGI): > 100 µM
- GI50 ([13]; read-out: pGI50 (converted)): 5.13 µM
- CC50 [13, 32]: > 100 µM
- TGI ([13]; read-out: pTGI (converted)): > 100 µM
- GI50 ([14]; read-out: GI50): > 100 µM
- LC50 ([14]; read-out: LC50): > 100 µM
- TGI ([14]; read-out: TGI): > 100 µM
- GI50 ([14]; read-out: pGI50 (converted)): > 100 µM
- LC50 ([14]; read-out: pLC50 (converted)): > 100 µM
- TGI ([14]; read-out: pTGI (converted)): > 100 µM
- growth at 1 µM [15]: 82%
- growth at 1 µM [16]: 54%
- growth at 0.1 µM [17]: 52%
- growth at 1 µM [18]: 88%
- growth at 0.1 µM [19]: 101%
- growth at 100 µM [20]: 30%
- IC50 [21]: 5.56 µM
- GI50 ([21]; read-out: GI50): 5.58 µM
- CC50 [21, 31]: > 100 µM
- TGI ([21]; read-out: TGI): > 100 µM
- GI50 ([21]; read-out: pGI50 (converted)): 5.62 µM
- CC50 [21, 32]: > 100 µM
- TGI ([21]; read-out: pTGI (converted)): > 100 µM
- growth at 100 µM [22]: 38%
- growth at 0.1 µM [23]: 94%
- growth at 1 µM [24]: 71%
- growth at 1 µM [25]: 107%
- growth at 0.1 µM [26]: 93%
- growth at 100 µM [27]: 49%
- growth at 0.01 µM [28]: 101%
- growth at 0.01 µM [29]: 101%
- LC50 [30]: > 100 µM
- GI50 ([30]; read-out: GI50): 1.57 µM
- TGI ([30]; read-out: TGI): > 100 µM
- GI50 ([30]; read-out: pGI50 (converted)): 1.86 µM
- TGI ([30]; read-out: pTGI (converted)): > 100 µM

Structure (SMILES): COc1cc(Cl)cc(-c2nn(-c3cccc(NC(=O)Nc4ccc(Cl)c(Cl)c4)c3)cc2-c2ccncc2)c1
- growth at 100 µM [1]: -44%
- growth at 0.01 µM [2]: 96%
- growth at 100 µM [3]: 3%
- growth at 0.01 µM [4]: 96%
- growth at 100 µM [5]: -32%
- GI50 ([6]; read-out: GI50): 2.5 µM
- CC50 [6, 31]: > 100 µM
- TGI ([6]; read-out: TGI): 13.2 µM
- GI50 ([6]; read-out: pGI50 (converted)): 2.57 µM
- CC50 [6, 32]: > 100 µM
- TGI ([6]; read-out: pTGI (converted)): 13.2 µM
- growth at 1 µM [7]: 87%
- growth at 100 µM [8]: -7%
- growth at 100 µM [9]: -9%
- growth at 100 µM [10]: -15%
- growth at 0.01 µM [11]: 103%
- GI50 ([12]; read-out: GI50): 3.5 µM
- CC50 [12, 31]: > 100 µM
- TGI ([12]; read-out: TGI): 57 µM
- GI50 ([12]; read-out: pGI50 (converted)): 3.63 µM
- CC50 [12, 32]: > 100 µM
- TGI ([12]; read-out: pTGI (converted)): 87.1 µM
- GI50 ([13]; read-out: GI50): 2.27 µM
- CC50 [13, 31]: > 100 µM
- TGI ([13]; read-out: TGI): 13.9 µM
- GI50 ([13]; read-out: pGI50 (converted)): 2.29 µM
- CC50 [13, 32]: > 100 µM
- TGI ([13]; read-out: pTGI (converted)): 13.8 µM
- GI50 ([14]; read-out: GI50): 3.06 µM
- LC50 ([14]; read-out: LC50): > 100 µM
- TGI ([14]; read-out: TGI): > 100 µM
- GI50 ([14]; read-out: pGI50 (converted)): 3.09 µM
- LC50 ([14]; read-out: pLC50 (converted)): > 100 µM
- TGI ([14]; read-out: pTGI (converted)): > 100 µM
- growth at 1 µM [15]: 77%
- growth at 1 µM [16]: 91%
- growth at 0.1 µM [17]: 98%
- growth at 1 µM [18]: 91%
- growth at 0.1 µM [19]: 103%
- growth at 100 µM [20]: -8%
- IC50 [21]: 1.7 µM
- GI50 ([21]; read-out: GI50): 1.7 µM
- CC50 [21, 31]: 4.16 µM
- TGI ([21]; read-out: TGI): 60.3 µM
- GI50 ([21]; read-out: pGI50 (converted)): 1.7 µM
- CC50 [21, 32]: 41.7 µM
- TGI ([21]; read-out: pTGI (converted)): 6.03 µM
- growth at 100 µM [22]: -13%
- growth at 0.1 µM [23]: 59%
- growth at 1 µM [24]: 71%
- growth at 1 µM [25]: 93%
- growth at 0.1 µM [26]: 91%
- growth at 100 µM [27]: -3%
- growth at 0.01 µM [28]: 99%
- growth at 0.01 µM [29]: 100%
- LC50 [30]: > 100 µM
- GI50 ([30]; read-out: GI50): 1.96 µM
- TGI ([30]; read-out: TGI): 72.5 µM
- GI50 ([30]; read-out: pGI50 (converted)): 1.95 µM
- TGI ([30]; read-out: pTGI (converted)): 7.24 µM
